Results taken from ChEMBL document CHEMBL1201862, “PubChem BioAssay data set” (2004).
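Five concentrations, 48 hours, 96-well plates. Here, GI50 denotes the concentration required for 50% inhibition of growth.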 Calls of active or inactive are those of the source. Rule as the data show it: active = GI50 up to about 1.1 µM and inactive = higher.

Assays:
Test in all cases: inhibition of tumour cell growth, NCI panel, 48 h
UO-31 = system: UO-31
CAKI-1 = system: CAKI-1
EKVX = system: EKVX
SNB-75 = system: SNB-75
HOP-62 = system: HOP-62
Malme-3M = system: Malme-3M
IGROV-1 = system: IGROV-1
SF-539 = system: SF-539
UACC-62 = system: UACC-62
A549 = system: A549
TK-10 = system: TK-10
NCI-H23 = system: NCI-H23
OVCAR-5 = system: OVCAR-5
OVCAR-3 = system: OVCAR-3
LOX IMVI = system: LOX IMVI

| SMILES | GI50 (UO-31) | GI50 (CAKI-1) | GI50 (EKVX) | GI50 (SNB-75) | GI50 (HOP-62) | GI50 (Malme-3M) | GI50 (IGROV-1) | GI50 (SF-539) | GI50 (UACC-62) | GI50 (A549) | GI50 (TK-10) | GI50 (NCI-H23) | GI50 (OVCAR-5) | GI50 (OVCAR-3) | GI50 (LOX IMVI) |
| --- | --- | --- | --- | --- | --- | --- | --- | --- | --- | --- | --- | --- | --- | --- | --- |
| COc1ccc(/C(=N/Nc2ccccc2)C(c2ccc(OC)cc2)C2OC(=O)c3ccccc32)cc1 (configuration not stated) | 60.7 µM (inactive) | 41.9 µM (inactive) | 37.8 µM (inactive) | 48.9 µM (inactive) | > 100 µM (inactive) | > 100 µM (inactive) | 83.9 µM (inactive) | > 100 µM (inactive) | 52.7 µM (inactive) | 99.3 µM (inactive) | – | – | – | – | – |
| CN(C)c1ccc(/C=C(\NC(=O)c2ccccc2)c2nc3cncnc3[nH]2)cc1 | > 100 µM (inactive) | > 100 µM (inactive) | > 100 µM (inactive) | – | – | > 100 µM (inactive) | > 100 µM (inactive) | > 100 µM (inactive) | > 100 µM (inactive) | > 100 µM (inactive) | > 100 µM (inactive) | > 100 µM (inactive) | > 100 µM (inactive) | > 100 µM (inactive) | – |
| CC(=O)Nc1c(C)ccc2c1C(=O)c1ccccc1C2=O | 77.1 µM (inactive) | 56.5 µM (inactive) | – | 45.7 µM (inactive) | > 100 µM (inactive) | > 100 µM (inactive) | > 100 µM (inactive) | > 100 µM (inactive) | > 100 µM (inactive) | > 100 µM (inactive) | > 100 µM (inactive) | – | > 100 µM (inactive) | – | 79.3 µM (inactive) |
| S=C1NC(c2ccccc2)=NC(Cc2ccccc2)(c2ccccc2)N1c1ccccc1 (configuration not stated) | > 100 µM (inactive) | > 100 µM (inactive) | > 100 µM (inactive) | 19.7 µM (inactive) | 40.3 µM (inactive) | > 100 µM (inactive) | > 100 µM (inactive) | > 100 µM (inactive) | > 100 µM (inactive) | 58.9 µM (inactive) | > 100 µM (inactive) | > 100 µM (inactive) | > 100 µM (inactive) | > 100 µM (inactive) | 96.6 µM (inactive) |
| CN1N=CSC12C(=O)N(c1ccc(Cl)cc1)C(=O)N2c1ccc(Cl)cc1 (configuration not stated) | 2.85 µM (inactive) | 3.92 µM (inactive) | 7.14 µM (inactive) | 3.99 µM (inactive) | 3.69 µM (inactive) | 3.55 µM (inactive) | 5.05 µM (inactive) | 5.82 µM (inactive) | 3.36 µM (inactive) | 3.46 µM (inactive) | 3.84 µM (inactive) | 2.12 µM (inactive) | – | 1.43 µM (inactive) | 3.21 µM (inactive) |
| N=C(N)Nc1nc2cc(N)ccc2o1 | > 100 µM (inactive) | > 100 µM (inactive) | > 100 µM (inactive) | > 100 µM (inactive) | > 100 µM (inactive) | > 100 µM (inactive) | – | > 100 µM (inactive) | > 100 µM (inactive) | > 100 µM (inactive) | > 100 µM (inactive) | > 100 µM (inactive) | – | – | > 100 µM (inactive) |
| COc1c(CC(=O)c2ccccc2)c2ccccc2n1C(C)=O | 56.8 µM (inactive) | > 100 µM (inactive) | 35.6 µM (inactive) | > 100 µM (inactive) | > 100 µM (inactive) | – | > 100 µM (inactive) | > 100 µM (inactive) | > 100 µM (inactive) | > 100 µM (inactive) | – | 58.7 µM (inactive) | – | > 100 µM (inactive) | – |
| O=C1C(Cl)C(c2ccc(Cl)cc2)N1n1cnc2ccccc2c1=O (configuration not stated) | 59.7 µM (inactive) | 40.8 µM (inactive) | 14.5 µM (inactive) | 26.2 µM (inactive) | > 100 µM (inactive) | > 100 µM (inactive) | 96.2 µM (inactive) | – | 87.1 µM (inactive) | > 100 µM (inactive) | > 100 µM (inactive) | > 100 µM (inactive) | > 100 µM (inactive) | > 100 µM (inactive) | 70.5 µM (inactive) |
| O=C1N(Cl)C(=O)C(c2ccc(Cl)cc2)(c2ccc(Cl)cc2)N1Cl | 92.5 µM (inactive) | > 100 µM (inactive) | > 100 µM (inactive) | > 100 µM (inactive) | – | > 100 µM (inactive) | > 100 µM (inactive) | > 100 µM (inactive) | – | 58.6 µM (inactive) | > 100 µM (inactive) | > 100 µM (inactive) | – | > 100 µM (inactive) | – |
| Cn1cc2ccccc2c1-c1nc(N)nc(F)n1 | 67.9 µM (inactive) | > 100 µM (inactive) | 64.4 µM (inactive) | 47.3 µM (inactive) | > 100 µM (inactive) | 56.1 µM (inactive) | > 100 µM (inactive) | > 100 µM (inactive) | – | > 100 µM (inactive) | > 100 µM (inactive) | > 100 µM (inactive) | > 100 µM (inactive) | > 100 µM (inactive) | > 100 µM (inactive) |
| CS(=O)(=O)OCCN(CCOS(C)(=O)=O)c1ccc(/C=N/N=c2/nc[nH]c3nc[nH]c23)cc1 | 28.3 µM (inactive) | 14.2 µM (inactive) | 33.2 µM (inactive) | 14.6 µM (inactive) | 28.2 µM (inactive) | 27 µM (inactive) | 19.1 µM (inactive) | 18.3 µM (inactive) | 12.9 µM (inactive) | 26.2 µM (inactive) | 26.9 µM (inactive) | 14.8 µM (inactive) | 20.6 µM (inactive) | 13.4 µM (inactive) | 15.1 µM (inactive) |
| COc1ccc2nc(NC(=O)C(=O)C(C#N)c3ccc(CC#N)cc3)sc2c1 (configuration not stated) | 54.6 µM (inactive) | > 100 µM (inactive) | 33.5 µM (inactive) | > 100 µM (inactive) | > 100 µM (inactive) | > 100 µM (inactive) | > 100 µM (inactive) | > 100 µM (inactive) | 92.9 µM (inactive) | > 100 µM (inactive) | > 100 µM (inactive) | > 100 µM (inactive) | > 100 µM (inactive) | > 100 µM (inactive) | > 100 µM (inactive) |
| CCOC(=O)c1cc(OC(=O)CC)c2c(OC)ccc(OC)c2c1 | 74.1 µM (inactive) | 46.2 µM (inactive) | 35.8 µM (inactive) | 11.4 µM (inactive) | – | > 100 µM (inactive) | > 100 µM (inactive) | 47.2 µM (inactive) | 28.8 µM (inactive) | > 100 µM (inactive) | 47.1 µM (inactive) | 74 µM (inactive) | 46.1 µM (inactive) | – | – |
| CNC(=O)C(C)Oc1ccc(OCC2CCCCC2)cc1 (configuration not stated) | 31.7 µM (inactive) | – | – | 96.2 µM (inactive) | – | 25.3 µM (inactive) | > 100 µM (inactive) | > 100 µM (inactive) | > 100 µM (inactive) | > 100 µM (inactive) | > 100 µM (inactive) | 35.6 µM (inactive) | – | 26.4 µM (inactive) | > 100 µM (inactive) |
| CC(C)(C)S(=O)OC12CC3CC(CC(C3)C1)C2 (configuration not stated) | 92 µM (inactive) | – | > 100 µM (inactive) | 33.8 µM (inactive) | > 100 µM (inactive) | > 100 µM (inactive) | > 100 µM (inactive) | > 100 µM (inactive) | > 100 µM (inactive) | > 100 µM (inactive) | > 100 µM (inactive) | > 100 µM (inactive) | > 100 µM (inactive) | > 100 µM (inactive) | > 100 µM (inactive) |
| CN1CCN(C)C1c1cccc(C2N(C)CCN2C)c1 | > 100 µM (inactive) | – | – | 48.2 µM (inactive) | > 100 µM (inactive) | – | > 100 µM (inactive) | > 100 µM (inactive) | > 100 µM (inactive) | – | – | > 100 µM (inactive) | > 100 µM (inactive) | > 100 µM (inactive) | > 100 µM (inactive) |
| CC(C)(C)c1cc(C(O)(C(F)(F)F)C(F)(F)F)c2c(c1)C(C(F)(F)F)(C(F)(F)F)OC(c1ccccc1)(C(C)(C)C)N2 (configuration not stated) | 4.04 µM (inactive) | 4.02 µM (inactive) | 5.18 µM (inactive) | 2.82 µM (inactive) | – | 7.06 µM (inactive) | 4.33 µM (inactive) | > 100 µM (inactive) | 3.66 µM (inactive) | > 100 µM (inactive) | 3.02 µM (inactive) | 1.99 µM (inactive) | 18.8 µM (inactive) | 0.637 µM (active) | – |
| NC1=NS(=O)(=O)Nc2nc(-c3cccs3)[nH]c21 | > 100 µM (inactive) | > 100 µM (inactive) | – | > 100 µM (inactive) | > 100 µM (inactive) | > 100 µM (inactive) | > 100 µM (inactive) | > 100 µM (inactive) | > 100 µM (inactive) | > 100 µM (inactive) | > 100 µM (inactive) | > 100 µM (inactive) | > 100 µM (inactive) | > 100 µM (inactive) | > 100 µM (inactive) |
| CCCCCCCCCCCCCP(=O)(O)NCC(N)=O | 27.7 µM (inactive) | – | > 100 µM (inactive) | 17.4 µM (inactive) | 37.8 µM (inactive) | > 100 µM (inactive) | 41.2 µM (inactive) | 55.7 µM (inactive) | 52.4 µM (inactive) | > 100 µM (inactive) | 58.3 µM (inactive) | > 100 µM (inactive) | > 100 µM (inactive) | 39 µM (inactive) | 51.5 µM (inactive) |
| C#CC1(O)CCC2[C@@H]3CCc4cc(Oc5nc(F)nc(-c6c7ccccc7cn6C)n5)ccc4C3CC[C@@]21C (some centres not stated) | > 62.1 µM (inactive) | > 100 µM (inactive) | > 100 µM (inactive) | > 91.2 µM (inactive) | > 100 µM (inactive) | > 100 µM (inactive) | – | > 100 µM (inactive) | > 100 µM (inactive) | > 100 µM (inactive) | > 100 µM (inactive) | > 100 µM (inactive) | > 100 µM (inactive) | > 100 µM (inactive) | > 100 µM (inactive) |
| COc1cccc2c1[C@]1(O)C(O)CCCC21 (some centres not stated) | > 100 µM (inactive) | > 100 µM (inactive) | > 10 µM (inactive) | > 100 µM (inactive) | > 100 µM (inactive) | > 100 µM (inactive) | > 100 µM (inactive) | > 100 µM (inactive) | > 100 µM (inactive) | > 100 µM (inactive) | > 100 µM (inactive) | > 100 µM (inactive) | > 100 µM (inactive) | > 100 µM (inactive) | > 100 µM (inactive) |
